Tested on: nodal section explants from 7-day-old seedlings of corn line 106
Test: Effect of seed germination medium on callus induction from nodal section explants (36-media screen)
Assay type: cell-based
Experimental: This example described experiments to determine the best combination of auxins and cytokinins in the germination tissue culture media. To improve the efficiency of callus induction from 106 seedlings, 36 different germination media were evaluated. Those media were MS-based with different combinations of picloram (0, 0.1, 1, 2.2, 5 or 10 mg/L) and BAP (0, 0.1, 1, 3, 5 or 10 mg/L) concentrations.

SMILES	callus induction (% embryogenic calli per node) (germination medium picloram 0.00 mg/L, BAP 0.10 mg/L) [%]	callus induction (% embryogenic calli per node) (germination medium picloram 0.00 mg/L, BAP 1.00 mg/L) [%]	callus induction (% embryogenic calli per node) (germination medium picloram 0.00 mg/L, BAP 3.00 mg/L) [%]	callus induction (% embryogenic calli per node) (germination medium picloram 0.00 mg/L, BAP 5.00 mg/L) [%]	callus induction (% embryogenic calli per node) (germination medium picloram 0.00 mg/L, BAP 10.00 mg/L) [%]	callus induction (% embryogenic calli per node) (germination medium picloram 0.10 mg/L, BAP 0.00 mg/L) [%]	callus induction (% embryogenic calli per node) (germination medium picloram 1.00 mg/L, BAP 0.00 mg/L) [%]	callus induction (% embryogenic calli per node) (germination medium picloram 2.20 mg/L, BAP 0.00 mg/L) [%]	callus induction (% embryogenic calli per node) (germination medium picloram 5.00 mg/L, BAP 0.00 mg/L) [%]	callus induction (% embryogenic calli per node) (germination medium picloram 10.00 mg/L, BAP 0.00 mg/L) [%]
c1ccc(CNc2ncnc3nc[nH]c23)cc1 [BAP, 6-benzylaminopurine]	4.76	0.00	14.29	0.00	0.00	–	–	–	–	–
Nc1c(Cl)c(Cl)nc(C(=O)O)c1Cl [Picloram, 4-amino-3,5,6-trichloropicolinic acid]	–	–	–	–	–	0.00	9.52	9.52	19.05	4.76

From patent publication US20040210958A1, “A Novel Culture Method for Corn Transformation” (MONSANTO TECHNOLOGY LLC, priority 2003, published 2004)
